Reference: patent US20140329863A1 (priority 2011, published 2014)
Several values for one entry are separate records, joined by “and”; a condition that tells them apart may be missing. Identical values can stand only once. Like-named read-outs stand apart in the source and are kept apart here.

Key:
[1] = tested on: PrP^Sc in dividing ScN2a-cl3 cells; type: cell-based, mouse; parameters: Dividing ELISA pEC50 (μM) 1st Expt. / Dividing ELISA pEC50 (μM) 2nd Expt. / Dividing ELISA pEC50 (μM) 3rd Expt. / Dividing ELISA pEC50 (μM) Mean: unit not given here
N2a-cl3 cells [2] = assay: cells; conditions: Mus musculus, N2a-cl3, read-out: Dividing Calcein EC50 (μM) Mean (n = 3)
[3] = tested on: PrP^Sc in nondividing ScN2a-cl3 cells; type: cell-based, mouse; conditions: read-out: Non-Dividing ELISA EC50 (μM) Mean (n = 3); ScN2a-c13 non-dividing cells; mean n = 3
[4] = Hepatic microsomal stability, rat; conditions: […]
in vitro = conditions: mouse
N2a-cl3 cells [5] = conditions: mouse
[6] = tested on: PrP^Sc in ScN2a-cl3 cells; type: cell-based, mouse; conditions: Western immunoblots
[7] = ScN2a-cl3 dividing cells, 1st determination
[8] = ScN2a-cl3 dividing cells, 2nd determination
[9] = ScN2a-cl3 dividing cells, 3rd determination
[10] = ScN2a-cl3 dividing cells, mean of three determinations
[11] = read-out: Dividing ELISA EC50 (μM) 1st Expt., ScN2a-cl3 dividing cells, 1st determination
[12] = read-out: Dividing ELISA EC50 (μM) 2nd Expt., ScN2a-cl3 dividing cells, 2nd determination
[13] = read-out: Dividing ELISA EC50 (μM) 3rd Expt., ScN2a-cl3 dividing cells, 3rd determination
[14] = read-out: Dividing ELISA EC50 (μM) Mean, ScN2a-cl3 dividing cells, mean of three determinations
[15] = read-out: EC50 (nM): ELISA, dividing ScN2a-cl3 cells
[16] = read-out: Potency (nM) ELISA (EC50), PrP^Sc ELISA, dividing ScN2a-cl3 cells
[17] = read-out: EC50 (nM): Western, ScN2a-cl3 cells
[18] = read-out: Potency (nM) Western (EC50), dividing ScN2a-cl3 cells
[19] = read-out: Antiprion activity EC50, thienopyridine analogs

Row | SMILES | EC50 [1, 15] [µM] | EC50 [1, 16] [µM] | CC50 (in vitro) [nM] | EC50 (nM): Calcein (LC50 values from calcein assays) (N2a-cl3 cells [5]) | EC50 [6, 17] [nM] | EC50 [6, 18] [nM] | EC50 [1, 19] | further results
1 | Cc1ccc(Nc2nc(-c3ccccc3)cs2)nc1 [compound 25, (5-Methylpyridin-2-yl)-(4-phenylthiazol-2-yl)-amine] | – | – | – | – | – | – | – | Dividing ELISA pEC50 (μM) 1st Expt. [1, 7]: 4.89; Dividing ELISA pEC50 (μM) 2nd Expt. [1, 8]: 5.31; Dividing ELISA pEC50 (μM) 3rd Expt. [1, 9]: 5.24; Dividing ELISA pEC50 (μM) Mean [1, 10]: 5.15; EC50 ([1]; read-out: Antiprion activity ScN2a-cl3 EC50, ScN2a-cl3 cells): 7.88 µM; EC50 [1, 11]: 13 µM; EC50 [1, 12]: 4.9 µM; EC50 [1, 13]: 5.74 µM; EC50 [1, 14]: 7.88 µM; EC50 (N2a-cl3 cells [2]): > 32 µM; EC50 [3]: > 32 µM; Microsome stability T1/2 [4]: 10 min
2 | c1ccc2cc(-c3cn4ccsc4n3)ccc2c1 [IND-009413] | 6.02 | 6.02 | > 10000 | MW: 250.2 EC50 (nM): ELISA: 6015 Calcein: >10,000 Western: 2490 | 2490 | 2490 | – | –
3 | COc1ccc(-c2ccc3c(N)c(C(=O)Nc4ccc5c(c4)OCCO5)sc3n2)cc1 [IND-0035833] | – | – | > 10000 | – | – | – | > 10 µM | –
4 | CCOc1ccc(NC(=O)c2cc3ccccc3cc2O)cc1 [IND-0031751] | 0.156 | 0.156 | > 10000 | MW: 307.3 EC50 (nM): ELISA: 156 Calcein: >10,000 Western: 42 | 42 | 42 | – | –
5 | COc1ccc(-c2ccc3c(N)c(C(=O)Nc4ccc(F)cc4)sc3n2)cc1OC [IND-0044746] | – | – | > 10000 | – | – | – | 0.227 µM | –
6 | COc1ccc(C(=O)Nc2ccc(-c3csc(C)n3)cc2)cc1 [IND-0033145] | 0.412 | 0.412 | > 10000 | MW: 324.4 EC50 (nM): ELISA: 412 Calcein: >10,000 Western: 161 | 161 | 161 | – | –
7 | COc1ccc(-c2nc3cc(NC(=O)c4ccc(OCc5ccccc5)cc4)ccc3o2)cc1 [IND-0114202] | 0.057 | 0.057 | > 10000 | MW: 450.5 EC50 (nM): ELISA: 57 Calcein: >10,000 Western: 2565 | 2560 | 2560 | – | –
8 | CC(=O)c1ccc(N2CCN(Cc3cccnc3)CC2)cc1 [IND-0018629] | – | – | > 10000 | MW: 295.4 EC50 (nM): ELISA: 2943 Calcein: >10,000 Western: 886 | 886 | 886 | – | –
9 | COc1ccc(-c2ccc3c(N)c(C(=O)Nc4ccc(C(C)=O)cc4)sc3n2)cc1 [IND-0037769] | – | – | > 10000 | – | – | – | 0.097 µM | –
10 | COc1ccc(-c2ccc3c(N)c(C(=O)NCCc4ccc(OC)c(OC)c4)sc3n2)cc1 [IND-0037771] | – | – | > 10000 | – | – | – | 0.419 µM | –
11 | COc1cc(CNCCO)cc(Br)c1OCc1ccccc1Cl [IND-0046380] | 5.08 | 5.08 | > 10000 | MW: 400.7 EC50 (nM): ELISA: 5080 Calcein: >10,000 Western: 2148 | 2150 | 2150 | – | –
12 | COc1cc(NC(=O)c2sc3nc(-c4cccs4)ccc3c2N)cc(OC)c1OC [IND-0042103] | – | – | > 10000 | – | – | – | > 10 µM | –
13 | CCOc1ccc(C(=O)Nc2ccc3oc(-c4ccc(OC)cc4)nc3c2)cc1 [IND-0114138] | 0.065 | 0.065 | > 10000 | MW: 388.4 EC50 (nM): ELISA: 65 Calcein: >10,000 Western: 134 | 134 | 134 | – | –
14 | c1cncc(-c2nc(-c3c[nH]c4ccccc34)cs2)c1 [IND-0024350] | 0.321 | 0.321 | > 10000 | MW: 277.3 EC50 (nM): ELISA: 321 Calcein: >10,000 Western: 828 | 828 | 828 | – | –
15 | COc1ccc(-c2ccc3c(N)c(C(=O)Nc4ccc(F)cc4)sc3n2)cc1 [IND-0035860] | – | – | > 10000 | – | – | – | 0.057 µM and 0.059 µM | –
16 | COc1cccc(Nc2nc(N)c3ccccc3n2)c1 [IND-0035916] | 4.02 | 4.02 | > 10000 | MW: 266.3 EC50 (nM): ELISA: 4023 Calcein: >10,000 Western: 5987 | 5990 | 5990 | – | –

Row | SMILES | EC50 [1, 15] [µM] | EC50 [1, 16] [µM] | CC50 (in vitro) [nM] | EC50 (nM): Calcein (LC50 values from calcein assays) (N2a-cl3 cells [5]) | EC50 [6, 17] [nM] | EC50 [6, 18] [nM] | EC50 [1, 19] | further results
17 | Cn1c(=N)n(CC(=O)c2ccc(Cl)cc2)c2ccccc21 [IND-0026326] | 5.9 | 5.9 | > 10000 | MW: 299.8 EC50 (nM): ELISA: 5900 Calcein: >10,000 Western: 4967 | 4970 | 4970 | – | –
18 | Nc1c(C(=O)Nc2ccc(F)cc2)sc2nc(-c3ccc4c(c3)OCO4)ccc12 [IND-0042063] | – | – | > 10000 | – | – | – | 0.613 µM | –
19 | COc1ccc(-c2cc(-c3ccc(OC)cc3O)[nH]n2)cc1 [IND-0025807] | 0.167 | 0.167 | > 10000 | MW: 296.3 EC50 (nM): ELISA: 167 Calcein: >10,000 Western: 95 | 95 | 95 | – | –
20 | CCc1ccc(-c2cn3ccccc3n2)cc1 [IND-0009417] | 9.16 | 9.16 | > 10000 | MW: 222.3 EC50 (nM): ELISA: 9158 Calcein: >10,000 Western: 4715 | 4720 | 4720 | – | –
21 | COc1ccc2cc3c(N)c(C(=O)Nc4ccc(C(C)=O)cc4)sc3nc2c1 [IND-0052025] | 0.057 | 0.057 | > 10000 | MW: 391.4 EC50 (nM): ELISA: 57 Calcein: >10,000 Western: 61 | 61 | 61 | 0.074 µM | –
22 | Nc1c(C(=O)Nc2cc(F)ccc2F)sc2nc(-c3cccs3)ccc12 [IND-0024581] | – | – | > 10000 | – | – | – | 2.06 µM | –
23 | O=C(Nc1nc(-c2ccc3ccccc3c2)cs1)C1CC1 [IND-0030883] | – | 0.913 | > 10000 | – | – | 570 | – | –
24 | COc1ccc(-c2csc(Nc3cccc4ccccc34)n2)cc1OC [compound 20, [4-(3,4-dimethoxyphenyl)-thiazol-2-yl]-naphthalen-1-yl-amine] | – | – | – | – | – | – | – | Dividing ELISA pEC50 (μM) 1st Expt. [1, 7]: >4.5; Dividing ELISA pEC50 (μM) 2nd Expt. [1, 8]: >4.5; Dividing ELISA pEC50 (μM) 3rd Expt. [1, 9]: >4.5; EC50 [1, 11]: > 32 µM; EC50 [1, 12]: > 32 µM; EC50 [1, 13]: > 32 µM; EC50 [1, 14]: > 32 µM; melting point: 244 to 246 °C; EC50 (N2a-cl3 cells [2]): > 32 µM; EC50 [3]: > 32 µM
25 | COc1ccc(CNC(=O)c2sc3nc(-c4ccc(OC)cc4)ccc3c2N)cc1 [IND-0040541] | – | – | > 10000 | – | – | – | > 10 µM | –
26 | c1ccc(-c2ccc(-c3csc(Nc4cc5ccccc5cn4)n3)s2)nc1 [compound 34, Isoquinolin-3-yl-[4-(5-pyridin-2-yl-thiophen-2-yl)-thiazol-2-yl]-amine] | – | – | – | – | – | – | – | Dividing ELISA pEC50 (μM) 1st Expt. [1, 7]: 5.65; Dividing ELISA pEC50 (μM) 2nd Expt. [1, 8]: 5.79; Dividing ELISA pEC50 (μM) 3rd Expt. [1, 9]: 5.67; Dividing ELISA pEC50 (μM) Mean [1, 10]: 5.70; EC50 [1, 11]: 2.25 µM; EC50 [1, 12]: 1.61 µM; EC50 [1, 13]: 2.16 µM; EC50 [1, 14]: 2.01 µM; melting point: 246 to 248 °C; EC50 (N2a-cl3 cells [2]): > 32 µM; EC50 [3]: > 32 µM
27 | CSc1ccc(NC(=O)c2sc3nc(-c4cccs4)ccc3c2N)cc1 [IND-0024576] | – | – | > 10000 | – | – | – | 0.077 µM | –
28 | c1ccc(-c2cc(-c3csc(Nc4ccccn4)n3)on2)cc1 [compound 42, [4-(3-Phenylisoxazol-5-yl)-thiazol-2-yl]pyridin-2-yl-amine] | – | – | – | – | – | – | – | Dividing ELISA pEC50 (μM) 1st Expt. [1, 7]: 6.20; Dividing ELISA pEC50 (μM) 2nd Expt. [1, 8]: 6.22; Dividing ELISA pEC50 (μM) 3rd Expt. [1, 9]: 6.23; Dividing ELISA pEC50 (μM) Mean [1, 10]: 6.22; EC50 [1, 11]: 0.629 µM; EC50 [1, 12]: 0.599 µM; EC50 [1, 13]: 0.585 µM; EC50 [1, 14]: 0.604 µM; melting point: 211 to 215 °C; EC50 (N2a-cl3 cells [2]): > 32 µM; EC50 [3]: > 32 µM
29 | COc1ccc(Nc2nc(-c3ccc(OC)c(OC)c3)cs2)nc1 [compound 13, [4-(3,4-dimethoxyphenyl)-thiazol-2-yl]-(5-methoxypyridin-2-yl)-amine] | – | – | – | – | – | – | – | EC50 [1, 13]: 0.917 µM; EC50 (N2a-cl3 cells [2]): > 32 µM; EC50 [3]: > 32 µM; Microsome stability T1/2 [4]: 45 min
30 | COc1ccc(NC(=O)c2sc3nc(-c4cccs4)ccc3c2N)cc1OC [IND-0024573] | – | – | > 10000 | – | – | – | 0.396 µM | –
31 | COc1ccc(-c2csc(Nc3ccccc3)n2)cc1OC [compound 9, [4-(3,4-dimethoxyphenyl)-thiazol-2-yl]-phenyl-amine] | – | – | – | – | – | – | – | Dividing ELISA pEC50 (μM) 1st Expt. [1, 7]: 5.13; Dividing ELISA pEC50 (μM) 2nd Expt. [1, 8]: 5.14; Dividing ELISA pEC50 (μM) 3rd Expt. [1, 9]: 5.35; Dividing ELISA pEC50 (μM) Mean [1, 10]: 5.21; EC50 [1, 11]: 7.4 µM; EC50 [1, 12]: 7.29 µM; EC50 [1, 13]: 4.45 µM; EC50 [1, 14]: 6.38 µM; melting point: 170 to 174 °C; EC50 (N2a-cl3 cells [2]): > 32 µM; EC50 [3]: > 32 µM
